Where “and” joins values, the source holds several entries; their conditions need not be identical. Equal entries are not always repeated. Where two headings read alike, the source gives them in different places.
Columns and labels:
[1] = test system: Shionogi mouse mammary carcinoma cells; assay: In vitro androgenic/antiandrogenic activity: proliferation of Shionogi cells with or without DHT; type: cell-based; conditions: for stimulation at 10^−7M on basal Shionogi cell proliferation (in words): basal (no DHT)
[2] = target: Human Androgen Receptor (Homo sapiens (Human), UniProt P10275); assay: Androgen receptor assay: [3H]R1881 displacement, cytosol of HEK-293 cells transfected with hAR (hydroxylapatite assay); type: binding
[3] = test system: castrated (CX) immature male rats; assay: Systemic androgenic (agonistic) activity in orchidectomized (CX) immature male rats; type: in vivo, rat; conditions: 0.1 mg/rat/po, 7 days; for CX Agonistic activity % Stimulation Bulbo: bulbocavernosus muscles weight; for CX Agonistic activity % Stimulation SV: seminal vesicles weight; for CX Agonistic activity % Stimulation Prostate: ventral prostate weight
Description: Immature male rats (Crl:CD(SD)Br) 22 to 24-day old weighting 60-80 g at start of treatment were obtained from Charles-River, Inc. (St-Constant, Quebec, Canada) and housed up to 5 per cage in plastic bins in a temperature (23±1° C.)- and light (12 h light/day, lights on at 7 h15)-controlled environment. The rats were fed rodent chow and tap water ad libitum. […] The day following their arrival, the designed animals were orchidectomized (CX) under Isoflurane anesthesia (Study Day 1) via the scrotal route and were then randomly assigned to groups of 3 to 5 animals. At the time of orchidectomy, one silastic implant of dihydrotestosterone (DHT; 1 cm length of pure DHT in silastic tubing having inner and outer diameter of 0.078 and 0.125 inches, respectively), was inserted subcutaneously in the dorsal area of animals assigned to the evaluation of antiandrogenic activity. In the case of intact animal experiments, the orchidectomy and the silastic implant installation are omitted.
Tested compounds were administered orally once daily for 7 days from Study Day 2 to Study Day 8 at doses generally ranging from 0.1 and 0.5 mg/animal. Compounds were either solubilized in dimethylsulfoxide (DMSO, 10% final concentration) and were administered as a solution/suspension in 0.9% NaCl-1% gelatin or were administered as suspensions in 0.4% aqueous methylcellulose. Animals of the control groups received the corresponding vehicle alone during the 7-day period. Some animals were treated with the antiandrogen Flutamide or Casodex as reference. The animals under isoflurane anesthesia were killed by cervical dislocation on day 9 of the study, approximately 24 h after the last dosing. The ventral prostate, seminal vesicles and bulbocavernosus muscles were rapidly dissected and weighed.
For calculations with intact animals, control DHT is replaced by control intact and the % stimulation is subtracted by 100%. W is the weight of the prostate, seminal vesicles or bulbocavernosus muscles. Discussion

[4] = relative binding affinity, R1881 = 100, transfected cells
[5] = Mus musculus, read-out: Shionogi Antiandrogenic Activity IC50, DHT (0.3 nM)-stimulated cell number
[6] = relative binding affinity, R1881 = 100, […]
[7] = read-out: Shionogi Antiandrogenic Activity IC50, DHT (0.3 nM)-stimulated cell number

Chain of Human Androgen Receptor (P10275 whole entry): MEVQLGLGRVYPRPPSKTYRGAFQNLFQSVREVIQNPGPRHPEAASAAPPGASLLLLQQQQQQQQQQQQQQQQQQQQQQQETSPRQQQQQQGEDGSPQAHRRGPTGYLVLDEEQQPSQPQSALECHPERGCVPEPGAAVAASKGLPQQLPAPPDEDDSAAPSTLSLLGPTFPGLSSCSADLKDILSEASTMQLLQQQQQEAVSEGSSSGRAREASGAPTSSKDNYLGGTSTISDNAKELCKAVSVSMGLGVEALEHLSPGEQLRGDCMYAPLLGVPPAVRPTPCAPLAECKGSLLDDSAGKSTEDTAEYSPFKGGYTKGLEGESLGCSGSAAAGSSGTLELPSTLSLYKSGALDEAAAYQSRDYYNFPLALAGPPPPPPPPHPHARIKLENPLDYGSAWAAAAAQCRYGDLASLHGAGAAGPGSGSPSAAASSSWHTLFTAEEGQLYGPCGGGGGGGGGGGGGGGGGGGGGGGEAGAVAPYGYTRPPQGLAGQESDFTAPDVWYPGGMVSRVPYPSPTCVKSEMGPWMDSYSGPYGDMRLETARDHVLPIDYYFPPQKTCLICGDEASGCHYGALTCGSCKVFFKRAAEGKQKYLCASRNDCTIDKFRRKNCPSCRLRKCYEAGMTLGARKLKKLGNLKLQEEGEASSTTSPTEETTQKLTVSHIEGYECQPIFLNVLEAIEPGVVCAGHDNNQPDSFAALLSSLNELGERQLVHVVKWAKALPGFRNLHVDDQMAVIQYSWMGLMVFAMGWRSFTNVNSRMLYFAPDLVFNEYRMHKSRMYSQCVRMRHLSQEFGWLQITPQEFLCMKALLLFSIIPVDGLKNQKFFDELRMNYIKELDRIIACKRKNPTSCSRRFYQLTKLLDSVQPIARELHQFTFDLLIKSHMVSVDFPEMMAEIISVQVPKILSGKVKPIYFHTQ

SMILES | Human Androgen Receptor Binding RBA (%) R1881 = 100 [2, 4] | IC50 [1, 5] | Human Androgen Receptor Binding RBA (%) R1881 = 100 [2, 6] | also measured
CC1(C)C(=O)N(c2ccc(C#N)c(C(F)(F)F)c2)C(=S)N1CCCOc1ccc(CN2CCC(O)C2)cc1 (stereo not drawn) [EM-7365, reference compound] | 24% | – | – | IC50 ([1]; DHT (0.3 nM)-stimulated cell number, read-out: Shionogi Antiandrogenic Activity IC50): 6 nM
CC1(C)C(=O)N(c2ccc(C#N)c(C(F)(F)F)c2)C(=S)N1CCCOc1ccc(-c2cccnc2)cc1 [EM-8840] | – | 24 ± 6 nM | 1090 ± 500 (n = 2) % | –
CC1(C)C(=O)N(c2ccc(C#N)c(C(F)(F)F)c2)C(=S)N1CCCOc1ccc(-c2ccncc2)cc1 [EM-8841] | – | 73 ± 5 nM | 1200 ± 330 (n = 2) % | –
CC1(C)C(=O)N(c2ccc(C#N)c(C(F)(F)F)c2)C(=S)N1CCCOc1ccc(-c2ccncc2)c(F)c1 [EM-8851] | 3310% and 3310 ± 1780 (n = 2) % | 77 ± 20 nM | – | –
CC1(C)C(=O)N(c2ccc(C#N)c(C(F)(F)F)c2)C(=S)N1CCCOc1cccc(-c2ccncc2)c1 [EM-8871] | – | 66 nM | 558 ± 102 (n = 2) % | –
CC1(C)C(=O)N(c2ccc(C#N)c(C(F)(F)F)c2)C(=S)N1CCCOc1ccc(-c2ccncc2)cc1F [EM-8872] | – | 36 nM | 723 ± 59 (n = 2) % | –
CC1(C)C(=O)N(c2ccc(C#N)c(C(F)(F)F)c2)C(=S)N1CCCOc1ccc(-c2ccncc2)c(Cl)c1 [EM-8888] | 1880 ± 1040 (n = 2) % | – | – | IC50 ([1]; Mus musculus, DHT (0.3 nM)-stimulated cell number, read-out: Shionogi Antiandrogenic Activity IC50): 111 nM
CC1(C)C(=O)N(c2ccc(C#N)c(C(F)(F)F)c2)C(=S)N1CCCOc1ccc(-c2ccncc2)c(C(F)(F)F)c1 [EM-8890] | 59 ± 25 (n = 2) % | 13.2 nM | – | –
CC1(C)C(=O)N(c2ccc(C#N)c(C(F)(F)F)c2)C(=S)N1CCCOc1ccc(-c2ccncc2)cc1C(F)(F)F [EM-8900] | – | 2.6 to 4.3 nM | 130 ± 60 (n = 2) % | stimulation at 10^−7M on basal Shionogi cell proliferation (in words) [1]: none of these compounds has any activity; IC50 [1, 7]: 3.8 nM
Cc1ccc(-c2ccc(OCCCN3C(=S)N(c4ccc(C#N)c(C(F)(F)F)c4)C(=O)C3(C)C)cc2)cn1 [EM-8908] | – | 50 nM | 944 ± 265 (n = 2) % | –
CC1(C)C(=O)N(c2ccc(C#N)c(C(F)(F)F)c2)C(=S)N1CCCOc1ccc(-c2ccnc(F)c2)cc1 [EM-8923] | 136% | 48 nM | – | –
CC1(C)C(=O)N(c2ccc(C#N)c(C(F)(F)F)c2)C(=S)N1CCCOc1ccc(-c2cc[n+]([O-])cc2)cc1 [EM-8929] | 100 ± 12 (n = 2) % | – | – | IC50 [1, 7]: 17 ± 10 nM
CC1(C)C(=O)N(c2ccc(C#N)c(C(F)(F)F)c2)C(=O)N1CCCOc1ccc(-c2cc[n+]([O-])cc2)cc1 [EM-9000] | – | 20 ± 10 nM | 1.5 ± 0.3 (n = 2) % | –
CC1(C)C(=O)N(c2ccc(C#N)c(F)c2)C(=S)N1CCCOc1ccc(-c2ccncc2)c(F)c1 [EM-9011] | 43 ± 9 (n = 2) % | 6.6 ± 0.8 nM | – | –
CC1(C)C(=O)N(c2ccc(C#N)c(F)c2)C(=S)N1CCCOc1ccc(-c2ccncc2)cc1 [EM-9025] | 39% | – | – | stimulation at 10^−7M on basal Shionogi cell proliferation (in words) [1]: none of these compounds has any activity
CC1(C)C(=O)N(c2ccc(C#N)c(Cl)c2)C(=S)N1CCCOc1ccc(-c2ccncc2)c(F)c1 [EM-9037] | 1040 ± 350 (n = 2) % | 8.7 nM | – | –
CC1(C)C(=O)N(c2ccc(C#N)c(Cl)c2)C(=S)N1CCCOc1ccc(-c2ccncc2)cc1 [EM-9039] | – | 2.6 to 4.3 nM | 762 ± 396 (n = 2) % | stimulation at 10^−7M on basal Shionogi cell proliferation (in words) [1]: none of these compounds has any activity; IC50 [1, 7]: 4.3 nM
CC1(C)C(=O)N(c2ccc(C#N)c(C(F)(F)F)c2)C(=S)N1CCCOc1ccc(-c2cc[n+]([O-])cc2)cc1.Cl [EM-9043] | – | – | 175% | stimulation at 10^−7M on basal Shionogi cell proliferation (in words) [1]: none of these compounds has any activity; IC50 [1, 7]: 3.4 nM
CC1(C)C(=O)N(c2ccc(C#N)c(Cl)c2)C(=S)N1CCCOc1ccc(-c2cccnc2)cc1 [EM-9049] | – | 6.8 nM | 269% | –
CC1(C)C(=O)N(c2ccc(C#N)c(C(F)(F)F)c2)C(=S)N1CCCOc1ccc(-c2ccncc2)cn1 [EM-9050] | – | 12 ± 2 nM | 317 ± 122 (n = 2) % | –

SMILES | Human Androgen Receptor Binding RBA (%) R1881 = 100 [2, 4] | IC50 [1, 5] | Human Androgen Receptor Binding RBA (%) R1881 = 100 [2, 6] | also measured
CC1(C)C(=O)N(c2ccc(C#N)c(C(F)(F)F)c2)C(=O)N1CCCOc1ccc(-c2ccncc2)cc1F [EM-9055] | 7.3% | 10.6 nM | – | –
CC1(C)C(=O)N(c2ccc(C#N)c(C(F)(F)F)c2)C(=O)N1CCCOc1ccc(-c2ccncc2)c(F)c1 [EM-9066] | 10.3 ± 1.3 (n = 2) % | 11 ± 4 nM | – | –
CC1(C)C(=O)N(c2ccc(C#N)c(C(F)(F)F)c2)C(=O)N1CCCOc1ccc(-c2cc[n+]([O-])cc2)c(F)c1 [EM-9067] | 2.4% | 12 nM | – | –
CC1(C)C(=O)N(c2ccc(C#N)c(C(F)(F)F)c2)C(=S)N1CCCCOc1ccc(-c2cccnc2)cc1 [EM-9070] | 191% | 14.9 nM | – | –
CC1(C)C(=O)N(c2ccc(C#N)c(C(F)(F)F)c2)C(=O)N1CCCOc1ccc(-c2ccncc2)c(C(F)(F)F)c1 [EM-9089] | 2.0% | 49 nM | – | –
CC1(C)C(=O)N(c2ccc(C#N)c(C(F)(F)F)c2)C(=S)N1CCCOc1ccc(-c2ccncc2)nc1 [EM-9092] | 72% | 11.2 nM | – | –
CC1(C)C(=O)N(c2ccc(C#N)c(C(F)(F)F)c2)C(=O)N1CCCOc1ccc(-c2ccncc2)nc1 [EM-9111] | – | 19 nM | 1.0 ± 0.0 (n = 2) % | –
CC1(C)C(=O)N(c2ccc(C#N)c(C(F)(F)F)c2)C(=O)N1CCCOc1ccc(-c2ccncc2)cn1 [EM-9114] | – | 19.2 ± 0.3 nM | 7.9 ± 4.1 (n = 3) % | –
CC1(C)C(=O)N(c2ccc(C#N)c(Cl)c2)C(=O)N1CCCOc1ccc(-c2ccncc2)c(F)c1 [EM-9115] | – | 18 ± 4 nM | 12.5 ± 2.3 (n = 6) % | –
CC1(C)C(=O)N(c2ccc(C#N)c(Cl)c2)C(=O)N1CCCOc1ccc(-c2cc[n+]([O-])cc2)c(F)c1 [EM-9117] | – | 31 ± 10 nM | 2.5 ± 0.5 (n = 5) % | –
Cc1c(N2C(=O)N(CCCOc3ccc(-c4ccncc4)cc3F)C(C)(C)C2=O)ccc(C#N)c1F [EM-9204] | 22% | – | – | –
Cc1c(N2C(=O)N(CCCOc3ccc(-c4cc[n+]([O-])cc4)c(F)c3)C(C)(C)C2=O)ccc(C#N)c1F [EM-9208] | 2.2% | – | – | –
CC1(C)C(=O)N(c2ccc(C#N)c(Cl)c2)C(=O)N1CCCOc1ccc(-c2cc[n+]([O-])cc2)cn1 [EM-9225] | – | – | – | Human Androgen Receptor Binding RBA (%) R1881 = 100 [2]: 0.8%
CC1(C)C(=O)N(c2ccc(C#N)c(Cl)c2)C(=O)N1CCCOc1ccc(-c2ccncc2)cc1Cl.Cl [EM-9287] | – | – | 125 ± 9 (n = 3) % | –
CC1(C)C(=O)N(c2ccc(C#N)c(Cl)c2)C(=O)N1CCCOc1ccc(-c2cc[n+]([O-])cc2)cc1Cl.Cl [EM-9288] | – | – | 24 ± 8 (n = 2) % | –
Cc1c(N2C(=O)N(CCCCc3ccc(-c4ccncc4)cc3)C(C)(C)C2=O)ccc(C#N)c1Cl [EM-9336] | – | – | 32.3% | CX Agonistic activity % Stimulation Bulbo [3]: 59%; CX Agonistic activity % Stimulation SV [3]: 8%; CX Agonistic activity % Stimulation Prostate [3]: 27%
Cc1c(N2C(=O)N(CCOc3ccc(-c4ccncc4)cc3)C(C)(C)C2=O)ccc(C#N)c1Cl [EM-9337] | – | – | 28.3% | CX Agonistic activity % Stimulation Bulbo [3]: 95%; CX Agonistic activity % Stimulation SV [3]: 17%; CX Agonistic activity % Stimulation Prostate [3]: 33%
Cc1c(N2C(=O)N(CCOc3ccc(-c4cc[n+]([O-])cc4)cc3)C(C)(C)C2=O)ccc(C#N)c1Cl [EM-9339] | – | – | 4.0% | CX Agonistic activity % Stimulation Bulbo [3]: 68%; CX Agonistic activity % Stimulation SV [3]: 12%; CX Agonistic activity % Stimulation Prostate [3]: 27%
CC(C)(O)C(=O)Nc1ccc([N+](=O)[O-])c(C(F)(F)F)c1 [OH-FLU, hydroxyflutamide, reference compound] | 0.21 ± 0.09 (n = 3) % | – | – | Human Androgen Receptor Binding RBA (%) R1881 = 100 ([2]; relative binding affinity, R1881 = 100, transfected cells, listed as hydroxyflutamide): 0.21%
